From patent publication US9029414B2, “Triterpenoid compounds and methods of use thereof” (Biotechnology Research Corporation, priority 2008, dated 2015)

Assays:
ischemic rats = assay: MCAO (middle carotid artery occlusion) transient focal ischemia model; format: in vivo
Method: The MCAO (middle carotid artery occlusion model) was performed to investigate the protective effects of DA001 on the brain when the brain was exposed to transient focal ischemia (or lack of oxygen) such as during a stroke. Hemispheric brain swelling and infarct volume (the area of dead tissue caused by inadequate blood supply) was measured for test subjects treated with the compound 6 hours after ischemia and compared to that of the control group.
The MCAO (middle carotid artery occlusion model) was performed to investigate the protective effects of DA001 on the brain when exposed to transient focal ischemia (or lack of oxygen) such as during a stroke. Neurological scores, hemispheric brain swelling and infarct volume (the area of dead tissue caused by inadequate blood supply) was measured in test subjects treated with the compound 6 hours after ischemia and compared to that of the control group. DA001 effectively attenuated neurological deficits, reduced infarct volume (the area of dead tissue caused by inadequate blood supply), especially in brain slices number 3 to 5, and the extent of edema during ischemic conditions as shown in FIG. 2.

hippocampal neurons = assay: Hippocampal neuron survival assay against glutamate excitotoxicity (LDH); format: cell-based, Sprague-Dawley rats; conditions: 30 μM 24 hrs, glutamate 10-200 μM 20 min
Method: Hippocampal neurons/cortical neurons were prepared from embryonic day 18 Sprague-Dawley rats. After the cortices had been removed from the brain, isolated cells were plated onto Poly d-Lysine (PDL) (P0899, Sigma)-coated 48 well plates (150687, NUNC) at a density of 2×10^5 cell per well using Neurobasal Medium (NB) (21103-049, Gibco) with B27 supplement (17504-044, Gibco), penicillin/streptomycin (15140, Gibco) and 1 mM L-glutamine (25030, Gibco). The cell culture was incubated at 37° C. in a humidified atmosphere of 5% CO2 in air. Medium was changed to growth medium (Neurobasal Medium with penicillin/streptomycin and B27 supplement) after 3 hours. Half medium was changed with growth medium every 2-3 days to maintain the cells until day 10 in vitro (DIV 10). Serial dilutions of samples were prepared in growth medium and DMSO was used as vehicle control. For pre-treating assay, half of the medium was removed from wells, and equal amount of diluted samples were replaced. Cells were then incubated for 2 hours at 37° C. in a humidified atmosphere of 5% CO2 in air. […] Afterwards, cells were incubated in growth medium for 18-24 hours and detected with Cytotoxicity Detection Kit (1644793, Roche).
Hippocampal neurons were treated with DA021 and subsequently subjected to varying concentrations of glutamate. […] LDH release into the medium was then measured.

[1] = tested on: LPS-induced TNF-α in serum; assay: Murine model of lipopolysaccharide-induced cytokine production; format: in vivo, Swiss-Webster mice
Method: This is a contract research performed by Washington Biotechnology Inc., Columbia, Md., protocol 1077. Swiss-Webster mice (female, Harlan Sprague-Dawley, 5-6 weeks) were weighed and dosed orally with 10 ml/kg water, prednisolone at 10 mg/kg, or DA021 at 30 mg/kg or 100 mg/kg. Thirty minutes after oral dosing, lipopolysaccharides (LPS) at 2 mL/kg was injected. Two hours after LPS injection, the mice were anesthetized and exsanguinated into serum separator micro-container tubes. The blood was processed to serum. The serum samples were assayed for tumor necrosis factor-α (TNFα) concentration by ELISA (Pierce) according to the manufacturer's protocol.
Evaluation of the efficacy and potency of orally administered DA021 to inhibit the lipopolysaccharide (LPS)-induced release of tumor necrosis factor-α (TNF-α) in mice was carried out. LPS is a widely used endotoxin, isolated from the bacteria, E. coli in inducing acute inflammation in an organism. Prednisolone is a synthetic corticosteroid drug that is commonly used in inflammatory reactions. It is a broad range immunosuppressant. Based on FIG. 29, there was a marked increase in the amount of TNF-α in serum upon LPS treatment in mice.
Two hours after LPS injection, the serum was collected from the mice. The serum samples were assayed for tumor necrosis factor-α (TNFα) concentration by ELISA (Pierce) according to the manufacturer's protocol. N=10, significance was calculated versus LPS+vehicle using the Student's T-test, *=p≦0.05, #=p≦1×10^−4.

SMILES	total infarction of MCAO rats (ischemic rats; 12.6 mg/kg and 25.2 mg/kg orally 6 h post-ischemia)	extent of edema (ischemic rats; 42 mg/kg)	neurological scores of ischemic rats (ischemic rats; 12.6 and 25.2 mg/kg orally 6 h post-ischemia)	protection from glutamate-induced excitotoxicity (LDH release) (hippocampal neurons)	inhibition of the LPS response (serum TNF-α) ([1]; 30 mg/kg orally 30 min before LPS) [%]	inhibition of the LPS response (serum TNF-α) ([1]; 100 mg/kg orally 30 min before LPS) [%]
C=C(C)[C@@H]1CC[C@]2(C(=O)O)CC[C@]3(C)C(CC[C@@H]4[C@@]5(C)CC[C@H](O[C@@H]6OC[C@H](O)[C@H](O)[C@H]6O[C@@H]6O[C@@H](C)[C@H](O)[C@@H](O)[C@H]6O)[C@@](C)(CO)[C@@H]5CC[C@]43C)[C@@H]12 (stereo partly drawn) [DA001, 3-O-[α-L-rhamnopyranosyl-(1→2)-α-L-arabinopyranosyl]-3,23-dihydroxy-20(29)-lupen-28-oic acid]	significantly decreased	reduced the extent of edema	significantly improved	–	–	–
C=C(C)[C@@H]1CC[C@]2(/C=N/O)CC[C@]3(C)C(CCC4[C@@]5(C)CCC(=O)[C@@](C)(CO)[C@@H]5CC[C@]43C)C12 (stereo partly drawn) [DA021]	–	–	–	protects neurons against differing concentrations of glutamate	73	77
